Assay results from ChEMBL document CHEMBL1671626, “In vitro profiling of ceftaroline against a collection of recent bacterial clinical isolates from across the United States” (2008).
In brackets after ≈: the same amount, converted by molar mass.

Legend:
Format in all cases: functional
Staphylococcus aureus [1] = assay: Antibacterial activity against methicillin-susceptible Staphylococcus aureus by CLSI M7-A7 broth microdilution method
Staphylococcus aureus [2] = assay: Antibacterial activity against methicillin-resistant Staphylococcus aureus by CLSI M7-A7 broth microdilution method
Staphylococcus aureus [3] = assay: Antibacterial activity against coagulase-negative and oxacillin-susceptible Staphylococcus aureus by CLSI M7-A7 broth microdilution method
Staphylococcus aureus [4] = assay: Antibacterial activity against coagulase-negative and oxacillin-resistant Staphylococcus aureus by CLSI M7-A7 broth microdilution method
Streptococcus pneumoniae [5] = assay: Antibacterial activity against penicillin-susceptible Streptococcus pneumoniae by CLSI M7-A7 broth microdilution method
Streptococcus pneumoniae [6] = assay: Antibacterial activity against penicillin-resistant Streptococcus pneumoniae by CLSI M7-A7 broth microdilution method
Streptococcus pyogenes [7] = assay: Antibacterial activity against erythromycin-susceptible Streptococcus pyogenes by CLSI M7-A7 broth microdilution method
Streptococcus pyogenes [8] = assay: Antibacterial activity against erythromycin-nonsusceptible Streptococcus pyogenes by CLSI M7-A7 broth microdilution method
Streptococcus agalactiae [9] = assay: Antibacterial activity against erythromycin-susceptible Streptococcus agalactiae by CLSI M7-A7 broth microdilution method
Streptococcus agalactiae [10] = assay: Antibacterial activity against erythromycin-nonsusceptible Streptococcus agalactiae by CLSI M7-A7 broth microdilution method
Streptococcus viridans [11] = assay: Antibacterial activity against penicillin-susceptible Streptococcus viridans by CLSI M7-A7 broth microdilution method
Streptococcus viridans [12] = assay: Antibacterial activity against penicillin-nonsusceptible Streptococcus viridans by CLSI M7-A7 broth microdilution method
Enterococcus faecalis [13] = assay: Antibacterial activity against vancomycin-susceptible Enterococcus faecalis by CLSI M7-A7 broth microdilution method
Enterococcus faecalis [14] = assay: Antibacterial activity against vancomycin-resistant Enterococcus faecalis by CLSI M7-A7 broth microdilution method
Enterococcus faecium = assay: Antibacterial activity against vancomycin-resistant Enterococcus faecium by CLSI M7-A7 broth microdilution method
Enterobacteriaceae [15] = assay: Antibacterial activity against ceftazidime-susceptible Enterobacteriaceae by CLSI M7-A7 broth microdilution method
Enterobacteriaceae [16] = assay: Antibacterial activity against ceftazidime-nonsusceptible Enterobacteriaceae by CLSI M7-A7 broth microdilution method
Citrobacter freundii [17] = assay: Antibacterial activity against ceftazidime-susceptible Citrobacter freundii by CLSI M7-A7 broth microdilution method
Citrobacter freundii [18] = assay: Antibacterial activity against ceftazidime-nonsusceptible Citrobacter freundii by CLSI M7-A7 broth microdilution method
Enterobacter cloacae [19] = assay: Antibacterial activity against ceftazidime-susceptible Enterobacter cloacae by CLSI M7-A7 broth microdilution method
Enterobacter cloacae [20] = assay: Antibacterial activity against ceftazidime-nonsusceptible Enterobacter cloacae by CLSI M7-A7 broth microdilution method
Escherichia coli [21] = assay: Antibacterial activity against ceftazidime-susceptible Escherichia coli by CLSI M7-A7 broth microdilution method
Escherichia coli [22] = assay: Antibacterial activity against ceftazidime-nonsusceptible Escherichia coli by CLSI M7-A7 broth microdilution method
Klebsiella pneumoniae [23] = assay: Antibacterial activity against ceftazidime-susceptible Klebsiella pneumoniae by CLSI M7-A7 broth microdilution method
Klebsiella pneumoniae [24] = assay: Antibacterial activity against ceftazidime-nonsusceptible Klebsiella pneumoniae by CLSI M7-A7 broth microdilution method
Morganella morganii = assay: Antibacterial activity against ceftazidime-susceptible Morganella morganii by CLSI M7-A7 broth microdilution method
Proteus mirabilis = assay: Antibacterial activity against ceftazidime-susceptible Proteus mirabilis by CLSI M7-A7 broth microdilution method
Serratia marcescens = assay: Antibacterial activity against ceftazidime-susceptible Serratia marcescens by CLSI M7-A7 broth microdilution method
Acinetobacter [25] = assay: Antibacterial activity against multidrug-resistant Acinetobacter by CLSI M7-A7 broth microdilution method
Acinetobacter [26] = assay: Antibacterial activity against imipenem-susceptible Acinetobacter by CLSI M7-A7 broth microdilution method
Haemophilus influenzae [27] = assay: Antibacterial activity against beta lactamase-negative Haemophilus influenzae by CLSI M7-A7 broth microdilution method
Haemophilus influenzae [28] = assay: Antibacterial activity against beta lactamase-positive Haemophilus influenzae by CLSI M7-A7 broth microdilution method
Moraxella catarrhalis = assay: Antibacterial activity against beta lactamase-positive Moraxella catarrhalis by CLSI M7-A7 broth microdilution method
Pasteurella multocida = assay: Antibacterial activity against Pasteurella multocida by CLSI M7-A7 broth microdilution method
Providencia sp. = assay: Antibacterial activity against ceftazidime-susceptible Providencia sp. by CLSI M7-A7 broth microdilution method
Staphylococcus aureus [29] = assay: Antibacterial activity against methicillin-susceptible Staphylococcus aureus assessed as susceptible isolates by CLSI M7-A7 broth microdilution method
Staphylococcus aureus [30] = assay: Antibacterial activity against methicillin-susceptible Staphylococcus aureus assessed as resistant isolates by CLSI M7-A7 broth microdilution method
Staphylococcus aureus [31] = assay: Antibacterial activity against methicillin-resistant Staphylococcus aureus assessed as susceptible isolates by CLSI M7-A7 broth microdilution method
Staphylococcus aureus [32] = assay: Antibacterial activity against methicillin-resistant Staphylococcus aureus assessed as resistant isolates by CLSI M7-A7 broth microdilution method
Staphylococcus aureus [33] = assay: Antibacterial activity against coagulase-negative and oxacillin-susceptible Staphylococcus aureus assessed as susceptible isolates by CLSI M7-A7 broth microdilution method
Staphylococcus aureus [34] = assay: Antibacterial activity against coagulase-negative and oxacillin-susceptible Staphylococcus aureus assessed as resistant isolates by CLSI M7-A7 broth microdilution method
Staphylococcus aureus [35] = assay: Antibacterial activity against coagulase-negative and oxacillin-resistant Staphylococcus aureus assessed as susceptible isolates by CLSI M7-A7 broth microdilution method
Staphylococcus aureus [36] = assay: Antibacterial activity against coagulase-negative and oxacillin-resistant Staphylococcus aureus assessed as resistant isolates by CLSI M7-A7 broth microdilution method

## CCO/N=C(\C(=O)N[C@@H]1C(=O)N2C(C(=O)[O-])=C(Sc3nc(-c4cc[n+](C)cc4)cs3)CS[C@H]12)c1nsc(NP(=O)(O)O)n1 [CEFTAROLINE FOSAMIL]
Staphylococcus aureus [1]
  MIC50: 0.25 µg/mL (≈ 0.365 µM)
  MIC90: 0.25 µg/mL (≈ 0.365 µM)
Staphylococcus aureus [2]
  MIC50: 0.5 µg/mL (≈ 0.73 µM)
  MIC90: 1 µg/mL (≈ 1.46 µM)
Staphylococcus aureus [3]
  MIC50: 0.06 µg/mL (≈ 0.0876 µM)
  MIC90: 0.12 µg/mL (≈ 0.175 µM)
Staphylococcus aureus [4]
  MIC50: 0.5 µg/mL (≈ 0.73 µM)
  MIC90: 0.5 µg/mL (≈ 0.73 µM)
Streptococcus pneumoniae [5]
  MIC: ≤ 0.008 µg/mL
  MIC50: ≤ 0.008 µg/mL
  MIC90: 0.015 µg/mL (≈ 0.0219 µM)
Streptococcus pneumoniae [6]
  MIC50: 0.12 µg/mL (≈ 0.175 µM)
  MIC90: 0.12 µg/mL (≈ 0.175 µM)
Streptococcus pyogenes [7]
  MIC: ≤ 0.008 µg/mL
  MIC50: ≤ 0.008 µg/mL
  MIC90: ≤ 0.008 µg/mL
Streptococcus pyogenes [8]
  MIC: ≤ 0.008 µg/mL
  MIC50: ≤ 0.008 µg/mL
  MIC90: 0.015 µg/mL (≈ 0.0219 µM)
Streptococcus agalactiae [9]
  MIC50: 0.015 µg/mL (≈ 0.0219 µM)
  MIC90: 0.015 µg/mL (≈ 0.0219 µM)
Streptococcus agalactiae [10]
  MIC50: 0.015 µg/mL (≈ 0.0219 µM)
  MIC90: 0.015 µg/mL (≈ 0.0219 µM)
Streptococcus viridans [11]
  MIC: ≤ 0.008 µg/mL
  MIC50: ≤ 0.008 µg/mL
  MIC90: 0.03 µg/mL (≈ 0.0438 µM)
Streptococcus viridans [12]
  MIC50: 0.12 µg/mL (≈ 0.175 µM)
  MIC90: 0.5 µg/mL (≈ 0.73 µM)
Enterococcus faecalis [13]
  MIC50: 2 µg/mL (≈ 2.92 µM)
  MIC90: 4 µg/mL (≈ 5.84 µM)
Enterococcus faecalis [14]
  MIC50: 4 µg/mL (≈ 5.84 µM)
  MIC90: 4 µg/mL (≈ 5.84 µM)
Enterococcus faecium
  MIC50: > 16 µg/mL
  MIC90: > 16 µg/mL
Enterobacteriaceae [15]
  MIC50: 0.06 µg/mL (≈ 0.0876 µM)
  MIC90: 1 µg/mL (≈ 1.46 µM)
Enterobacteriaceae [16]
  MIC50: > 16 µg/mL
  MIC90: > 16 µg/mL
Citrobacter freundii [17]
  MIC50: 0.12 µg/mL (≈ 0.175 µM)
  MIC90: 0.25 µg/mL (≈ 0.365 µM)
Citrobacter freundii [18]
  MIC50: > 16 µg/mL
  MIC90: > 16 µg/mL
Enterobacter cloacae [19]
  MIC50: 0.12 µg/mL (≈ 0.175 µM)
  MIC90: 1 µg/mL (≈ 1.46 µM)
Enterobacter cloacae [20]
  MIC50: > 16 µg/mL
  MIC90: > 16 µg/mL
Escherichia coli [21]
  MIC50: 0.06 µg/mL (≈ 0.0876 µM)
  MIC90: 0.5 µg/mL (≈ 0.73 µM)
Escherichia coli [22]
  MIC50: > 16 µg/mL
  MIC90: > 16 µg/mL
Klebsiella pneumoniae [23]
  MIC50: 0.06 µg/mL (≈ 0.0876 µM)
  MIC90: 0.25 µg/mL (≈ 0.365 µM)
Klebsiella pneumoniae [24]
  MIC50: > 16 µg/mL
  MIC90: > 16 µg/mL
Morganella morganii
  MIC50: 0.06 µg/mL (≈ 0.0876 µM)
  MIC90: 16 µg/mL (≈ 23.4 µM)
Proteus mirabilis
  MIC50: 0.06 µg/mL (≈ 0.0876 µM)
  MIC90: 4 µg/mL (≈ 5.84 µM)
Serratia marcescens
  MIC50: 0.5 µg/mL (≈ 0.73 µM)
  MIC90: 16 µg/mL (≈ 23.4 µM)
Acinetobacter [25]
  MIC50: > 16 µg/mL
Acinetobacter [26]
  MIC50: 4 µg/mL (≈ 5.84 µM)
  MIC90: > 16 µg/mL
Haemophilus influenzae [27]
  MIC: ≤ 0.008 µg/mL
  MIC50: ≤ 0.008 µg/mL
  MIC90: 0.015 µg/mL (≈ 0.0219 µM)
Haemophilus influenzae [28]
  MIC50: 0.015 µg/mL (≈ 0.0219 µM)
  MIC90: 0.03 µg/mL (≈ 0.0438 µM)
Moraxella catarrhalis
  MIC50: 0.06 µg/mL (≈ 0.0876 µM)
  MIC90: 0.25 µg/mL (≈ 0.365 µM)
Pasteurella multocida
  MIC: ≤ 0.008 µg/mL
  MIC50: ≤ 0.008 µg/mL
  MIC90: 0.06 µg/mL (≈ 0.0876 µM)
Providencia sp.
  MIC50: 1 µg/mL (≈ 1.46 µM)
  MIC90: > 16 µg/mL

## Cc1onc(-c2ccccc2)c1C(=O)N[C@@H]1C(=O)N2[C@@H]1SC(C)(C)[C@@H]2C(=O)O [OXACILLIN]
Staphylococcus aureus [1]
  MIC50: 0.25 µg/mL (≈ 0.623 µM)
  MIC90: 0.5 µg/mL (≈ 1.25 µM)
Staphylococcus aureus [29]
  Activity: 100%
Staphylococcus aureus [30]
  Activity: 0%
Staphylococcus aureus [2]
  MIC50: > 8 µg/mL
  MIC90: > 8 µg/mL
Staphylococcus aureus [31]
  Activity: 0%
Staphylococcus aureus [32]
  Activity: 100%
Staphylococcus aureus [3]
  MIC50: 0.12 µg/mL (≈ 0.299 µM)
  MIC90: 0.25 µg/mL (≈ 0.623 µM)
Staphylococcus aureus [33]
  Activity: 100%
Staphylococcus aureus [34]
  Activity: 0%
Staphylococcus aureus [4]
  MIC50: > 8 µg/mL
  MIC90: > 8 µg/mL
Staphylococcus aureus [35]
  Activity: 0%
Staphylococcus aureus [36]
  Activity: 100%
Enterococcus faecalis [13]
  MIC50: > 8 µg/mL
  MIC90: > 8 µg/mL
Enterococcus faecalis [14]
  MIC50: > 8 µg/mL
  MIC90: > 8 µg/mL
Enterococcus faecium
  MIC: > 8 µg/mL
  MIC50: > 8 µg/mL
  MIC90: > 8 µg/mL
Moraxella catarrhalis
  MIC50: 4 µg/mL (≈ 9.96 µM)
  MIC90: > 8 µg/mL
